Measured values: PMC4858680, “A platinum-based hybrid drug design approach to circumvent acquired resistance to molecular targeted tyrosine kinase inhibitors” (Scientific Reports, 2016)

Columns and labels:
[1] = target: T1, EPHA1 (Homo sapiens, UniProt P21709); settings: 10 μM
T1 sequence (P21709 26-976): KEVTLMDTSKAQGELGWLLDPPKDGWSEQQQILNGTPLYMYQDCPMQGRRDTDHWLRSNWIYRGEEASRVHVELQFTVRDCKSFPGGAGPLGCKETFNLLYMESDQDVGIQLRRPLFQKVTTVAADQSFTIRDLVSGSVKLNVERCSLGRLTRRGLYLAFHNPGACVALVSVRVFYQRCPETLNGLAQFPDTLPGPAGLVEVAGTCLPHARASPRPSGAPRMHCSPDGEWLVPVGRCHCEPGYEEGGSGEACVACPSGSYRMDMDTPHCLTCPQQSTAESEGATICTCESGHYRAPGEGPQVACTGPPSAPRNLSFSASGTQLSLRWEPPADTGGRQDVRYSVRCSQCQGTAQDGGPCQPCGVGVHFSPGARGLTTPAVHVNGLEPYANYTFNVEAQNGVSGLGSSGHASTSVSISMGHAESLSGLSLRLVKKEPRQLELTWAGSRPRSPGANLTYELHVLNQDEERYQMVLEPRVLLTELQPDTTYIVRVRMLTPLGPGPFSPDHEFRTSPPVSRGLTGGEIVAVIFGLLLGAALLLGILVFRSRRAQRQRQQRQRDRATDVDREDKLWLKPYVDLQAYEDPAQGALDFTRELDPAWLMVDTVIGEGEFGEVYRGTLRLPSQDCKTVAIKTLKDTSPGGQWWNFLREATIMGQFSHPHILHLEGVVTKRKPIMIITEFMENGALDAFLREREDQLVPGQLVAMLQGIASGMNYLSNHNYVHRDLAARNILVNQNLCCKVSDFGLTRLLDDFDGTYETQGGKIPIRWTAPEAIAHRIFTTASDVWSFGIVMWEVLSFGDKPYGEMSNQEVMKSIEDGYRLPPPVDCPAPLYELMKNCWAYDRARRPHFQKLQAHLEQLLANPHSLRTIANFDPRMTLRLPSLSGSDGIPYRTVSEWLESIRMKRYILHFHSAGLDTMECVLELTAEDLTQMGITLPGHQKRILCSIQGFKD

[2] = target: T2, EPHB6 (Homo sapiens, UniProt O15197); settings: 10 μM
T2 sequence (O15197 32-1021): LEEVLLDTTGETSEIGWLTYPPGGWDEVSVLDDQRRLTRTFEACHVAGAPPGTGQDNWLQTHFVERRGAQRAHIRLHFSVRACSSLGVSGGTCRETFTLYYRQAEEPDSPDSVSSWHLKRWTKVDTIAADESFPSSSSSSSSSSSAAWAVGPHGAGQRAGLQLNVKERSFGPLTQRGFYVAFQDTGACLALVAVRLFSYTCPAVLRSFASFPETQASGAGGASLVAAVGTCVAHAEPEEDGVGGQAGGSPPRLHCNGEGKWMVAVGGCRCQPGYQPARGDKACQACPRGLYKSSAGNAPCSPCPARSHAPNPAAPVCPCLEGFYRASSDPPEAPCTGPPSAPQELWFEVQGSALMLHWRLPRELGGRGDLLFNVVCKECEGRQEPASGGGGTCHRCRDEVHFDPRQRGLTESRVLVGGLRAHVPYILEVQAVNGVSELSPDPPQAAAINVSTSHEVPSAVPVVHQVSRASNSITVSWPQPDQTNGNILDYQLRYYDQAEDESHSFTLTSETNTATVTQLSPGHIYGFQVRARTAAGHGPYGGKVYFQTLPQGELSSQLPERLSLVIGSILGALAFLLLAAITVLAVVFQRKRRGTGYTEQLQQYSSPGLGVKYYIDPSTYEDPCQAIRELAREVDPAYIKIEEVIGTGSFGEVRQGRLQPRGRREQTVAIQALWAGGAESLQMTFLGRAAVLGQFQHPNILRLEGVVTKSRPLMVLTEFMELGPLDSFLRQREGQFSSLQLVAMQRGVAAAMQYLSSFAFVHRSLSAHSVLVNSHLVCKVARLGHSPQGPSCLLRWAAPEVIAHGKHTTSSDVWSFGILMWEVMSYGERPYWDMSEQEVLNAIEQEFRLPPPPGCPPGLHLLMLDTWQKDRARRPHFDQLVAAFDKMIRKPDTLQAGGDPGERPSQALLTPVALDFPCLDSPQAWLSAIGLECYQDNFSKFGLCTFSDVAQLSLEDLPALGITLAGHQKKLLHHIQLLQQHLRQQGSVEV

[3] = target: T3, EPHB4 (Homo sapiens, UniProt P54760); settings: 10 μM
T3 sequence (P54760 16-987): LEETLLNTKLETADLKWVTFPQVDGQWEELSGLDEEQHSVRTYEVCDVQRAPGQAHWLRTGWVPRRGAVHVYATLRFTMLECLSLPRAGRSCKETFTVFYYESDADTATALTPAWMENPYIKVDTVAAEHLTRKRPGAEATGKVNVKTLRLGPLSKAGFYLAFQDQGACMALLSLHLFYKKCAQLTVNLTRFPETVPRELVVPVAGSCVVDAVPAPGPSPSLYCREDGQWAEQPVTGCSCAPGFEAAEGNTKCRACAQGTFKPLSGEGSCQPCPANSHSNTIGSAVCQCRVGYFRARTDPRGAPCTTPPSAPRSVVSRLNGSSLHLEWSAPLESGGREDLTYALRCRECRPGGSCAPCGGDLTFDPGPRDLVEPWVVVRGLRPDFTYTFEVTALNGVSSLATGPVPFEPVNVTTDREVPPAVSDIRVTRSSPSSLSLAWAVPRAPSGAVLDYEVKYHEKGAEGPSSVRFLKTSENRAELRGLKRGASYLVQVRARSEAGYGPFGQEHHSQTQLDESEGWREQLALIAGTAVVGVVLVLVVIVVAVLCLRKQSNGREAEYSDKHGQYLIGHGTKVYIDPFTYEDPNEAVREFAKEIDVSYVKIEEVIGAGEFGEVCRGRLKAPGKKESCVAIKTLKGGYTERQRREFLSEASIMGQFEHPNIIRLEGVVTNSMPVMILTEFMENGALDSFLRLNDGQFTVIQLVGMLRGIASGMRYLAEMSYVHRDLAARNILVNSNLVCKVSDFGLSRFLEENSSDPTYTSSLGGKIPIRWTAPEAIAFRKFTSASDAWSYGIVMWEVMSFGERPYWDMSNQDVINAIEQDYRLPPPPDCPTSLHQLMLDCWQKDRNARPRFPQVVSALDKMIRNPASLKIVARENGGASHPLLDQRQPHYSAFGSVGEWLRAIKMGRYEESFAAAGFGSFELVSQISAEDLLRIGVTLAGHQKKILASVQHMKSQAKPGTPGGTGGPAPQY

[4] = tested on: EGFR(L747-T751del,Sins); type: binding; settings: 10 μM
[5] = tested on: FLT3(ITD); settings: 10 μM
[6] = target: PDGFRA (Homo sapiens, UniProt P16234); experiment: biochemical; settings: read-out: Percent control
PDGFRA, sequence (P16234 24-1089): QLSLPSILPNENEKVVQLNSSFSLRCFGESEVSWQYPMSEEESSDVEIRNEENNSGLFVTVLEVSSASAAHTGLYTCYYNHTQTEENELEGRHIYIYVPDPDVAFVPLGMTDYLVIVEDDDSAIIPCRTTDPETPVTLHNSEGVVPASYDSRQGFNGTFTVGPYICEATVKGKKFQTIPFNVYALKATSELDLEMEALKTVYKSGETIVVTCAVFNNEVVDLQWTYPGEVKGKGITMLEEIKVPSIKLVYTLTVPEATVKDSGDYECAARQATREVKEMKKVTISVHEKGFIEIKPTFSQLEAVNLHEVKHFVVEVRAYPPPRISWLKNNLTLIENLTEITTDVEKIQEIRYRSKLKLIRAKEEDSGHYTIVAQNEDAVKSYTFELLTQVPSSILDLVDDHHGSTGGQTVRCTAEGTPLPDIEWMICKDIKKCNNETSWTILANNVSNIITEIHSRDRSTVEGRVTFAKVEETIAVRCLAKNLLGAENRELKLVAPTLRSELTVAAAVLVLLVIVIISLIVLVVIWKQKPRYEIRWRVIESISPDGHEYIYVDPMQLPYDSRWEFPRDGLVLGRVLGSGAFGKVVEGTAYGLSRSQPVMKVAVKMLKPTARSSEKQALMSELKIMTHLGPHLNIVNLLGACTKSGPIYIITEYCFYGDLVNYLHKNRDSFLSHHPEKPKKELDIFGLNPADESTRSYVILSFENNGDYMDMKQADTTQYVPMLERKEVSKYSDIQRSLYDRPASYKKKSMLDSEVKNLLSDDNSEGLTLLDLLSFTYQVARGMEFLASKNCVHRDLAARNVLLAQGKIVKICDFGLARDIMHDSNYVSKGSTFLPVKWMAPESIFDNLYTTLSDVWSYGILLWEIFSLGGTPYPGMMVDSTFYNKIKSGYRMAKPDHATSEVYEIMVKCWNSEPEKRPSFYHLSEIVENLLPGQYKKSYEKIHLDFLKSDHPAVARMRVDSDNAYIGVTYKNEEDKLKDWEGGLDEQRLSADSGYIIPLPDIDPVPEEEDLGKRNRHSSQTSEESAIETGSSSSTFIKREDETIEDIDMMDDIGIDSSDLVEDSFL

Cc1ccc(NC(=O)c2ccc(CN3CCN(C)CC3)cc2)cc1Nc1nccc(-c2cccnc2)[n+]1[Pt-2]1([Cl])[NH2+]C2CCCCC2[NH2+]1 (stereo not drawn) [1b, oxaliplatin-imatinib]
Percent control [1]: 86%
Percent control [2]: 92%
Percent control [3]: 100%
Percent control [4]: 76%
Percent control [5]: 74%

C#Cc1cccc(Nc2c3cc(OCCOC)c(OCCOC)cc3nc[n+]2[Pt@SP2-2]([NH3+])([NH3+])[Cl])c1 [2a, cisplatin-erlotinib]
Percent control [1]: 73%
Percent control [2]: 76%
Percent control [3]: 91%
Percent control [5]: 79%

COc1cc2c(Nc3ccc(Br)cc3F)[n+]([Pt-2]3([Cl])[NH2+]C4CCCCC4[NH2+]3)cnc2cc1OCC1CCN(C)CC1 (stereo not drawn) [3b, oxaliplatin-vandetanib]
Percent control [1]: 11%
Percent control [2]: 2.5%
Percent control [3]: 35%

C#Cc1cccc(Nc2ncnc3cc(OCCOC)c(OCCOC)cc23)c1 [Erlotinib]
remaining activity at 10 µM [6]: 15.3%
Percent control [4]: 0.0%
Percent control [5]: 7.6%

Cc1ccc(NC(=O)c2ccc(CN3CCN(C)CC3)cc2)cc1Nc1nccc(-c2cccnc2)n1 [Imatinib, reference compound]
Percent control [1]: 100%
Percent control [2]: 100%
remaining activity at 10 µM [6]: 0.3%
Percent control [3]: 100%
Percent control [4]: 100%
Percent control [5]: 38.7%

COc1cc2c(Nc3ccc(Br)cc3F)ncnc2cc1OCC1CCN(C)CC1 [Vandetanib, reference compound]
remaining activity at 10 µM [6]: 2.2%
Percent control [4]: 0.1%
Percent control [5]: 15.3%
